pEC50: −log10 of the molar value.
Tests used:
[1] = test system: SARS-CoV-2; assay type: functional, organism-based, Vero E6; settings: Severe acute respiratory syndrome coronavirus 2, 107, Vero C1008
[2] = test system: SARS-CoV-2; assay type: functional, organism-based, Vero E6; settings: Severe acute respiratory syndrome coronavirus 2, Vero C1008

SMILES	pEC50 [1]	pEC50 [2]
O=C[C@H](C[C@@H]1CCNC1=O)NC(=O)[C@@H]1[C@H]2CCC[C@H]2CN1C(=O)COc1ccc(Cl)cc1Cl	6.27	
COc1ccc(OCC(=O)N2C[C@H]3[C@@H]([C@H]2C(=O)N[C@H](C=O)C[C@@H]2CCNC2=O)C3(C)C)cc1	6.07	
O=c1c(O)c(-c2cc(O)c(O)c(O)c2)oc2cc(O)cc(O)c12 [MYRICETIN]		5.10

Source: ChEMBL document CHEMBL5223130, “Targeting SARS-CoV-2 Main Protease for Treatment of COVID-19: Covalent Inhibitors Structure-Activity Relationship Insights and Evolution Perspectives” (J Med Chem, 2022)
